We go through seven molecules from patent US11141455B2, “Peptide analogues with branched amino acid probe(s)” (priority 2014, dated 2021).

Assay [1] addresses T1, human GLP-1 receptor (Homo sapiens, UniProt P43220).
T1 construct: expressed in transfected cells; host or cells: CHO-K1 cells
Briefly: cAMP production (HTRF) in CHO-K1 cells expressing GLP-1 receptor. The class given is cell-based.

The target of assay [2] is T2, human GLP-2 receptor (Homo sapiens, UniProt O95838).
T2 construct: expressed in transfected cells; host or cells: CHO-K1 cells
T2 sequence (O95838 1-553): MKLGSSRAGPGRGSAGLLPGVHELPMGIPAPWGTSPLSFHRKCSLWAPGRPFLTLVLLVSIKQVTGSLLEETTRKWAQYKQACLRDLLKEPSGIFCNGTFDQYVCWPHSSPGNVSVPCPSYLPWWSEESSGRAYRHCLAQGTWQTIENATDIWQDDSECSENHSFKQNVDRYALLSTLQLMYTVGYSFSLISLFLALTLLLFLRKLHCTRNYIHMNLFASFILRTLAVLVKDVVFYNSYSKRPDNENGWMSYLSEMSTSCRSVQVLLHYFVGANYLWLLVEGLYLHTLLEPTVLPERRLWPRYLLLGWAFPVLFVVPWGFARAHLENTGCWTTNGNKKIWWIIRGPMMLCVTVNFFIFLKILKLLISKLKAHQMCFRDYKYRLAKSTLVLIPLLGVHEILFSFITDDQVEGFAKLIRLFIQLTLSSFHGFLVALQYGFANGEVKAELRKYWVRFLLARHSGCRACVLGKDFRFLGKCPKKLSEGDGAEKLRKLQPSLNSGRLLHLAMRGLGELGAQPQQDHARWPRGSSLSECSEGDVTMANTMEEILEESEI
Briefly: cAMP production (HTRF) in CHO-K1 cells expressing GLP-2 receptor. As to conditions: for Emax: CHO-K1, control peptide GLP-2 (1-34), read-out: Max efficacy in % of control peptide; for Emax / EC50: cAMP; for EC50: CHO-K1 human GLP-2 receptor. It counts as cell-based. On the procedure: CHO-K1 cells expressing the human GLP-2 receptor grown in media without antibiotic were detached by gentle flushing with PBS-EDTA (5 mM EDTA), recovered by centrifugation and resuspended in assay buffer (KRH: 5 mM KCl, 1.25 mM MgSO4, 124 mM NaCl, 25 mM HEPES, 13.3 mM Glucose, 1.25 mM KH2PO4, 1.45 mM CaCl2), 0.5 g/l BSA).
12 μl of cells were mixed with 12 μl of the test compound (solubilized in PBS/0.5% BSA and finally diluted from a stock solution of 1 mM) at increasing concentrations in 96 wells plates and then incubated 30 min at room temperature. cAMP production was determined after addition of a lysis buffer and 1 hour incubation, by use of competitive immunoassay using cryptate-labeled anti-cAMP and d2-labeled cAMP (HTRF kit from CisBio) with Delta F percentage values calculated according to the manufacturer specification. Dose response curves were performed in parallel with test compounds, and reference compounds.
The HTRF technology is a titration assay based on a competition between labeled cAMP (exogenous) and cAMP produced by the cell after activation of the […]. The dynamic range of the assay was 3-4 fold meaning that the linear range (which enables conversion from raw data to nM of cAMP) is within that range. […] All experiments were conducted in the presence of the non-selective phosphodiesterase inhibitor IBMX (1 mM in final concentration).
The test compounds were tested in a concentration range from […] to 10^−7M
Data is presented as mean values.

The target in assay [3] is T3, FPR2 receptor (Homo sapiens, UniProt P25090).
T3 sequence (P25090 1-351): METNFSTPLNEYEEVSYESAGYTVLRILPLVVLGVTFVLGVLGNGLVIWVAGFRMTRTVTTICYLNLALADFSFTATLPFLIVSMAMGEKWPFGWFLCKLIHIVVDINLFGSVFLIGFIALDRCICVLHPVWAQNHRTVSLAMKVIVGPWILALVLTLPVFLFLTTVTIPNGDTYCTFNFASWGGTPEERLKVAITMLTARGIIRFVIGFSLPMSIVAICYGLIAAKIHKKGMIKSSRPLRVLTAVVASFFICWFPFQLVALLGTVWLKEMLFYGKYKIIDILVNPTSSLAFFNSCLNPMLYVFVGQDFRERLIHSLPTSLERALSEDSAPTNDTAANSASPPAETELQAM
As to conditions: cited from earlier work.

T1 sequence (P43220 24-463): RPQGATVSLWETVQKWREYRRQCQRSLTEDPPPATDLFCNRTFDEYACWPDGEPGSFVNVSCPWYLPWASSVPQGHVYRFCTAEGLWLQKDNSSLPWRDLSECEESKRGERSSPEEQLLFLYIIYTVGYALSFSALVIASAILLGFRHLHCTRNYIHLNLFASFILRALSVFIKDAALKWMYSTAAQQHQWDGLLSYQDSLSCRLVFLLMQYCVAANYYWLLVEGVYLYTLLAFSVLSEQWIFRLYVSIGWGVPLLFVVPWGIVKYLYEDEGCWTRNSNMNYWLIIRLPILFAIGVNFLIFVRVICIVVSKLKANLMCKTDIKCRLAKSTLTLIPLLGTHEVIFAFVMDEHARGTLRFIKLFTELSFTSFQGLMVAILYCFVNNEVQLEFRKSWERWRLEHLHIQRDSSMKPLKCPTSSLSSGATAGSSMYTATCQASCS

`CC[C@H](C)[C@H](NC(=O)[C@H](Cc1ccccc1)NC(=O)[C@H](CCC(=O)O)NC(=O)[C@H](CCCCN)NC(=O)[C@H](C)NC(=O)[C@H](C)NC(=O)[C@H](CCC(N)=O)NC(=O)CNC(=O)[C@H](CCC(=O)O)NC(=O)[C@H](CC(C)C)NC(=O)[C@H](Cc1ccc(O)cc1)NC(=O)[C@H](CO)NC(=O)[C@H](CO)NC(=O)[C@@H](NC(=O)[C@H](CC(=O)O)NC(=O)[C@H](CO)NC(=O)[C@@H](NC(=O)[C@H](Cc1ccccc1)NC(=O)[C@@H](NC(=O)CNC(=O)[C@H](CCC(=O)O)NC(=O)CNC(=O)[C@H](Cc1c[nH]cn1)NC(C)=O)[C@@H](C)O)[C@@H](C)O)C(C)C)C(=O)N[C@@H](C)C(=O)N[C@@H](Cc1c[nH]c2ccccc12)C(=O)N[C@@H](CC(C)C)C(=O)N[C@H](C(=O)N[C@@H](CCCCN)C(=O)NCC(=O)N[C@@H](CCCNC(=N)N)C(=O)NCC(=O)N[C@@H](CCCCNC(=O)[C@H](CCCCN)NC(=O)[C@H](CCCCN)NC(C)=O)C(N)=O)C(C)C` [Analogue 2] had an EC50 in assay [1] of 0.04 nM. In addition, the Emax in assay [1] (CHO-K1, read-out: Max efficacy in % of control peptide) is 102%.
With `CC[C@H](C)[C@H](NC(=O)[C@H](Cc1ccccc1)NC(=O)[C@H](CC(=O)O)NC(=O)[C@H](CCCNC(=N)N)NC(=O)[C@H](C)NC(=O)[C@H](C)NC(=O)[C@H](CC(C)C)NC(=O)[C@H](CC(N)=O)NC(=O)[C@H](CC(=O)O)NC(=O)[C@H](CC(C)C)NC(=O)[C@@H](NC(=O)[C@@H](NC(=O)[C@H](CC(N)=O)NC(=O)[C@H](CCSC)NC(=O)[C@H](CCC(=O)O)NC(=O)[C@H](CC(=O)O)NC(=O)[C@H](CO)NC(=O)[C@H](Cc1ccccc1)NC(=O)[C@H](CO)NC(=O)CNC(=O)[C@H](CC(=O)O)NC(=O)[C@H](C)NC(=O)[C@H](Cc1c[nH]cn1)NC(C)=O)[C@@H](C)O)[C@@H](C)CC)C(=O)N[C@@H](CC(N)=O)C(=O)N[C@@H](Cc1c[nH]c2ccccc12)C(=O)N[C@@H](CC(C)C)C(=O)N[C@H](C(=O)N[C@@H](CCC(N)=O)C(=O)N[C@H](C(=O)N[C@@H](CCCCN)C(=O)N[C@H](C(=O)N[C@H](C(=O)N[C@@H](CC(=O)O)C(=O)N[C@@H](CCCCNC(=O)[C@H](CCCCN)NC(=O)[C@H](CCCCN)NC(C)=O)C(N)=O)[C@@H](C)O)[C@@H](C)CC)[C@@H](C)O)[C@@H](C)CC` [Analogue 3], in assay [2], the Emax came out at 101% and it took 3.4 nM to reach a half-maximal effect (EC50).
Regarding `CC[C@H](C)[C@H](NC(=O)[C@H](Cc1ccccc1)NC(=O)[C@H](CC(=O)O)NC(=O)[C@H](CCCNC(=N)N)NC(=O)[C@H](C)NC(=O)[C@H](C)NC(=O)[C@H](CC(C)C)NC(=O)[C@H](CC(N)=O)NC(=O)[C@H](CC(=O)O)NC(=O)[C@H](CC(C)C)NC(=O)[C@@H](NC(=O)[C@@H](NC(=O)[C@H](CC(N)=O)NC(=O)[C@H](CCSC)NC(=O)[C@H](CCC(=O)O)NC(=O)[C@H](CC(=O)O)NC(=O)[C@H](CO)NC(=O)[C@H](Cc1ccccc1)NC(=O)[C@H](CO)NC(=O)CNC(=O)[C@H](CC(=O)O)NC(=O)CNC(=O)[C@H](Cc1c[nH]cn1)NC(C)=O)[C@@H](C)O)[C@@H](C)CC)C(=O)N[C@@H](CC(N)=O)C(=O)N[C@@H](Cc1c[nH]c2ccccc12)C(=O)N[C@@H](CC(C)C)C(=O)N[C@H](C(=O)N[C@@H](CCC(N)=O)C(=O)N[C@H](C(=O)N[C@@H](CCCCN)C(=O)N[C@H](C(=O)N[C@H](C(=O)N[C@@H](CC(=O)O)C(=O)N[C@@H](CCCCNC(=O)[C@H](CCCCN)NC(=O)[C@H](CCCCN)NC(C)=O)C(N)=O)[C@@H](C)O)[C@@H](C)CC)[C@@H](C)O)[C@@H](C)CC` [Analogue 4], in assay [2], the Emax turned out to be 102% and the EC50 was found to be 5.9 nM.
The like results for `CC[C@H](C)[C@H](NC(=O)[C@H](Cc1ccccc1)NC(=O)[C@H](CC(=O)O)NC(=O)[C@H](CCCNC(=N)N)NC(=O)[C@H](C)NC(=O)[C@H](C)NC(=O)[C@H](CC(C)C)NC(=O)[C@H](CC(N)=O)NC(=O)[C@H](CC(=O)O)NC(=O)[C@H](CC(C)C)NC(=O)[C@@H](NC(=O)[C@@H](NC(=O)[C@H](CC(N)=O)NC(=O)[C@H](CCSC)NC(=O)[C@H](CCC(=O)O)NC(=O)[C@H](CC(=O)O)NC(=O)[C@H](CO)NC(=O)[C@H](Cc1ccccc1)NC(=O)[C@H](CO)NC(=O)CNC(=O)[C@H](CC(=O)O)NC(=O)[C@@H](C)NC(=O)[C@H](Cc1c[nH]cn1)NC(C)=O)[C@@H](C)O)[C@@H](C)CC)C(=O)N[C@@H](CC(N)=O)C(=O)N[C@@H](Cc1c[nH]c2ccccc12)C(=O)N[C@@H](CC(C)C)C(=O)N[C@H](C(=O)N[C@@H](CCC(N)=O)C(=O)N[C@H](C(=O)N[C@@H](CCCCN)C(=O)N[C@H](C(=O)N[C@H](C(=O)N[C@@H](CC(=O)O)C(=O)N[C@@H](CCCCNC(=O)[C@H](CCCCN)NC(=O)[C@H](CCCCN)NC(C)=O)C(N)=O)[C@@H](C)O)[C@@H](C)CC)[C@@H](C)O)[C@@H](C)CC` [Analogue 5] were, in that order, 95.1% and 8.9 nM.
With `CC[C@H](C)[C@H](NC(=O)[C@H](Cc1ccccc1)NC(=O)[C@H](CC(=O)O)NC(=O)[C@H](CCCNC(=N)N)NC(=O)[C@H](C)NC(=O)[C@H](C)NC(=O)[C@H](CC(C)C)NC(=O)[C@H](CC(N)=O)NC(=O)[C@H](CC(=O)O)NC(=O)[C@H](CC(C)C)NC(=O)[C@@H](NC(=O)[C@@H](NC(=O)[C@H](CC(N)=O)NC(=O)[C@H](CCSC)NC(=O)[C@H](CCC(=O)O)NC(=O)[C@H](CC(=O)O)NC(=O)[C@H](CO)NC(=O)[C@H](Cc1ccccc1)NC(=O)[C@H](CO)NC(=O)CNC(=O)[C@H](CC(=O)O)NC(=O)[C@H](C)NC(=O)[C@@H](N)Cc1c[nH]cn1)[C@@H](C)O)[C@@H](C)CC)C(=O)N[C@@H](CC(N)=O)C(=O)N[C@@H](Cc1c[nH]c2ccccc12)C(=O)N[C@@H](CC(C)C)C(=O)N[C@H](C(=O)N[C@@H](CCC(N)=O)C(=O)N[C@H](C(=O)N[C@@H](CCCCN)C(=O)N[C@H](C(=O)N[C@H](C(=O)N[C@@H](CC(=O)O)C(=O)N[C@@H](CCCNC(=N)N)C(=O)O)[C@@H](C)O)[C@@H](C)CC)[C@@H](C)O)[C@@H](C)CC` [GLP-2 (1-34), reference compound], the “Hill Slope” value in assay [2] (cAMP dose response curve) stood at 0.78.
For “Ac-Ala-Met-Val-Ser-Glu-Phe-Leu-Lys-Gln-Ala-Trp-NH2 (Ac-AMVSEFLKQAW-NH2; listed as Homo sapiens) [Control peptide 2]”, the “agonism at the FPR2 receptor as described in the literature” value in assay [3] is listed as “described as agonist to the FPR2 receptor- none of them as significantly potent”.
In the case of “Ac-Ala-Met-Val-Ser-Glu-Phe-Leu-Lys-Gln-Ala-Trp-Phe-Ile-Glu-Asn-Glu-Glu-Gln-Glu-Tyr-Val-Gln-Thr-Val-Lys-OH (Ac-AMVSEFLKQAWFIENEEQEYVQTVK-OH; listed as Homo sapiens) [Control peptide 1]”, the “agonism at the FPR2 receptor as described in the literature” value in assay [3] was “described as agonist to the FPR2 receptor- none of them as significantly potent”.
